# Assay results taken from patent US20240217957A1, “HETEROCYCLIC COMPOUND AND USE THEREOF” (TAKEDA PHARMACEUTICAL COMPANY LIMITED, priority 2022, published 2024).
# Molecular target: T1, human OX2 receptor (Homo sapiens, UniProt O43614)
# T1 construct: expressed in transfected cells
# T1 sequence (O43614 1-444): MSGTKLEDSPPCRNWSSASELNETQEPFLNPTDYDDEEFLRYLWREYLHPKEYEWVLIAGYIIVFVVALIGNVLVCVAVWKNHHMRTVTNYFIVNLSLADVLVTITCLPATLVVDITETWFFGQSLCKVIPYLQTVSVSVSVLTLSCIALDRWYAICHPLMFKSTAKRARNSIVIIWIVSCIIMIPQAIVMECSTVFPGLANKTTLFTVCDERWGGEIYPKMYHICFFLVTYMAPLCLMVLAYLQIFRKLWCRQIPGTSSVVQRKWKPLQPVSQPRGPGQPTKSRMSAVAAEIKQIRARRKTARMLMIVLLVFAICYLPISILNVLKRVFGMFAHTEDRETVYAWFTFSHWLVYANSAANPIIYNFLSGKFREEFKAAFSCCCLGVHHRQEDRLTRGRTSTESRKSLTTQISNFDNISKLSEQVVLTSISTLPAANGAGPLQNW
# Assay: Measurement of orexin type 2 receptor agonist activity (calcium fluorescence, Fluo-4 AM, FDSS)
# Format: cell-based
# Conditions: compound at 3 μM; CHO cells forcibly expressing human OX2 receptor; DMSO = 0%, 10 nM orexin A (human) = 100%
# How it was run: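 Agonist response is expressed as % of the fluorescence change given by 10 nM human orexin A, with DMSO as 0%, read over 1 min 40 s on FDSS after compound addition. Cells: stable human OX2 (1-444) CHO-K1 clones, dye-loaded with Fluo-4 AM plus probenecid in HEPES-buffered HBSS with 0.1% BSA.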
row,SMILES,"OX2R agonist activity (3 μM, %)"
1,"Cc1cnc([C@@H]2CC(N3CC[C@H](NS(=O)(=O)CF)C3)=NO2)c(-c2c(F)cc(F)cc2F)c1 [Example 56, 1-fluoro-N-[(3S)-1-{(5S)-5-[5-methyl-3-(2,4,6-trifluorophenyl)pyridin-2-yl]-4,5-dihydro-1,2-oxazol-3-yl}pyrrolidin-3-yl]methanesulfonamide]",92%
2,"Cc1cnc([C@@H]2CC(N3C[C@H](F)[C@H](NS(C)(=O)=O)C3)=NO2)c(-c2c(F)cc(F)cc2F)c1 [Example 57, N-[(3R,4S)-4-fluoro-1-{(5S)-5-[5-methyl-3-(2,4,6-trifluorophenyl)pyridin-2-yl]-4,5-dihydro-1,2-oxazol-3-yl}pyrrolidin-3-yl]methanesulfonamide]",105%
3,"Cc1cnc([C@@H]2CC(N3C[C@@H](NS(=O)(=O)CF)C(F)(F)C3)=NO2)c(-c2c(F)cc(F)cc2F)c1 [Example 58, N-[(3R)-4,4-difluoro-1-{(5S)-5-[5-methyl-3-(2,4,6-trifluorophenyl)pyridin-2-yl]-4,5-dihydro-1,2-oxazol-3-yl}pyrrolidin-3-yl]-1-fluoromethanesulfonamide]",103%
4,"Cc1cnc(C2(C(F)F)CC(N3C[C@@H](NS(C)(=O)=O)C(F)(F)C3)=NO2)c(-c2c(F)cccc2F)c1 (stereo partly drawn) [Example 59, N-[(3R)-1-{5-(difluoromethyl)-5-[3-(2,6-difluorophenyl)-5-methylpyridin-2-yl]-4,5-dihydro-1,2-oxazol-3-yl}-4,4-difluoropyrrolidin-3-yl]methanesulfonamide]",101%
5,"Cc1cnc([C@@H]2CC(N3C[C@@H](NS(=O)(=O)C(F)F)C(F)(F)C3)=NO2)c(-c2c(F)cc(F)cc2F)c1 [Example 60, N-[(3R)-4,4-difluoro-1-{(5S)-5-[5-methyl-3-(2,4,6-trifluorophenyl)pyridin-2-yl]-4,5-dihydro-1,2-oxazol-3-yl}pyrrolidin-3-yl]-1,1-difluoromethanesulfonamide]",105%
6,"Cc1cnc(C2CC(N3C[C@@H](NS(C)(=O)=O)C(F)(F)C3)=NO2)c(-c2c(F)cccc2Cl)c1 (stereo partly drawn) [Example 61, N-[(3R)-1-{5-[3-(2-chloro-6-fluorophenyl)-5-methylpyridin-2-yl]-4,5-dihydro-1,2-oxazol-3-yl}-4,4-difluoropyrrolidin-3-yl]methanesulfonamide]",98%
7,"Cc1cnc([C@@H]2CC(N3C[C@@H](C)[C@H](NS(C)(=O)=O)C3)=NO2)c(-c2c(F)cc(F)cc2F)c1 [Example 63, N-[(3S,4R)-4-methyl-1-{(5S)-5-[5-methyl-3-(2,4,6-trifluorophenyl)pyridin-2-yl]-4,5-dihydro-1,2-oxazol-3-yl}pyrrolidin-3-yl]methanesulfonamide]",101%
8,"Cc1cnc([C@@H]2CC(N3CC(F)(F)C(C)(NS(C)(=O)=O)C3)=NO2)c(-c2c(F)cc(F)cc2F)c1 (stereo partly drawn) [Example 64, N-(4,4-difluoro-3-methyl-1-{(5S)-5-[5-methyl-3-(2,4,6-trifluorophenyl)pyridin-2-yl]-4,5-dihydro-1,2-oxazol-3-yl}pyrrolidin-3-yl)methanesulfonamide]",100%
9,"Cc1cnc([C@@H]2CC(N3C[C@@H](F)[C@H](NS(=O)(=O)CF)C3)=NO2)c(-c2c(F)cccc2F)c1 [Example 65, N-[(3R,4R)-1-{(5S)-5-[3-(2,6-difluorophenyl)-5-methylpyridin-2-yl]-4,5-dihydro-1,2-oxazol-3-yl}-4-fluoropyrrolidin-3-yl]-1-fluoromethanesulfonamide]",97%
10,"Cc1cnc([C@@H]2CC(N3CC[C@H](NS(=O)(=O)C(F)F)C3)=NO2)c(-c2c(F)cc(F)cc2F)c1 [Example 66, 1,1-difluoro-N-[(3S)-1-{(5S)-5-[5-methyl-3-(2,4,6-trifluorophenyl)pyridin-2-yl]-4,5-dihydro-1,2-oxazol-3-yl}pyrrolidin-3-yl]methanesulfonamide]",99%
11,"O=S(=O)(N[C@@H]1CN(C2=NOC(c3ncc(F)cc3-c3c(F)cccc3F)C2)CC1(F)F)C1CC1 (stereo partly drawn) [Example 67, N-[(3R)-1-{5-[3-(2,6-difluorophenyl)-5-fluoropyridin-2-yl]-4,5-dihydro-1,2-oxazol-3-yl}-4,4-difluoropyrrolidin-3-yl]cyclopropanesulfonamide]",98%
12,"Cc1cnc([C@@H]2CC(N3C[C@H](F)[C@H](NS(=O)(=O)CF)C3)=NO2)c(-c2c(F)cccc2F)c1 [Example 68, N-[(3R,4S)-1-{(5S)-5-[3-(2,6-difluorophenyl)-5-methylpyridin-2-yl]-4,5-dihydro-1,2-oxazol-3-yl}-4-fluoropyrrolidin-3-yl]-1-fluoromethanesulfonamide]",104%
13,"CS(=O)(=O)N[C@@H]1CN(C2=NOC(c3ncc(F)cc3-c3c(F)cccc3F)C2)CC1(F)F (stereo partly drawn) [Example 69, N-[(3R)-1-{5-[3-(2,6-difluorophenyl)-5-fluoropyridin-2-yl]-4,5-dihydro-1,2-oxazol-3-yl}-4,4-difluoropyrrolidin-3-yl]methanesulfonamide]",95%
14,"CS(=O)(=O)N[C@@H]1CN(C2=NOC(c3ncc(F)cc3-c3c(F)cc(F)cc3F)C2)CC1(F)F (stereo partly drawn) [Example 70, N-[(3R)-4,4-difluoro-1-{5-[5-fluoro-3-(2,4,6-trifluorophenyl)pyridin-2-yl]-4,5-dihydro-1,2-oxazol-3-yl}pyrrolidin-3-yl]methanesulfonamide]",94%
15,"COCC1(NS(C)(=O)=O)CCN(C2=NO[C@H](c3ncc(C)cc3-c3c(F)cccc3F)C2)C1 (stereo partly drawn) [Example 73, N-[1-{(5S)-5-[3-(2,6-difluorophenyl)-5-methylpyridin-2-yl]-4,5-dihydro-1,2-oxazol-3-yl}-3-(methoxymethyl)pyrrolidin-3-yl]methanesulfonamide]",102%
16,"Cc1cnc([C@@H]2CC(O[C@H]3C[C@H](NS(C)(=O)=O)C3)=NO2)c(-c2c(F)cc(F)cc2F)c1 [Example 74, N-[(1s,3r)-3-({(5S)-5-[5-methyl-3-(2,4,6-trifluorophenyl)pyridin-2-yl]-4,5-dihydro-1,2-oxazol-3-yl}oxy)cyclobutyl]methanesulfonamide]",58%
17,"Cc1cnc(C2(C)CC(N3C[C@@H](NS(C)(=O)=O)C(F)(F)C3)=NO2)c(-c2c(F)cccc2F)c1 (stereo partly drawn) [Example 76, N-[(3R)-1-{5-[3-(2,6-difluorophenyl)-5-methylpyridin-2-yl]-5-methyl-4,5-dihydro-1,2-oxazol-3-yl}-4,4-difluoropyrrolidin-3-yl]methanesulfonamide]",108%
18,"Cc1cnc([C@@H]2CC(N3C[C@@H](F)[C@H](NS(=O)(=O)N(C)C)C3)=NO2)c(-c2c(F)cc(F)cc2F)c1 [Example 77, N′-[(3R,4R)-4-fluoro-1-{(5S)-5-[5-methyl-3-(2,4,6-trifluorophenyl)pyridin-2-yl]-4,5-dihydro-1,2-oxazol-3-yl}pyrrolidin-3-yl]-N,N-dimethylsulfuric diamide]",102%
19,"Cc1cnc([C@@H]2CC(N3C[C@@H](F)[C@H](NS(=O)(=O)N(C)C)C3)=NO2)c(-c2c(F)cccc2F)c1 [Example 78, N′-[(3R,4R)-1-{(5S)-5-[3-(2,6-difluorophenyl)-5-methylpyridin-2-yl]-4,5-dihydro-1,2-oxazol-3-yl}-4-fluoropyrrolidin-3-yl]-N,N-dimethylsulfuric diamide]",102%
20,"Cc1cnc([C@@H]2CC(N3C[C@H](F)[C@H](NS(=O)(=O)N(C)C)C3)=NO2)c(-c2c(F)cccc2F)c1 [Example 79, N′-[(3R,4S)-1-{(5S)-5-[3-(2,6-difluorophenyl)-5-methylpyridin-2-yl]-4,5-dihydro-1,2-oxazol-3-yl}-4-fluoropyrrolidin-3-yl]-N,N-dimethylsulfuric diamide]",100%
21,"CS(=O)(=O)N[C@@H]1CN(C2=NOC(c3ncc(Cl)cc3-c3c(F)cccc3F)C2)C[C@@H]1F (stereo partly drawn) [Example 80, N-[(3R,4S)-1-{5-[5-chloro-3-(2,6-difluorophenyl)pyridin-2-yl]-4,5-dihydro-1,2-oxazol-3-yl}-4-fluoropyrrolidin-3-yl]methanesulfonamide]",97%
22,"Cc1cnc([C@@H]2CC(N3C[C@H](F)[C@H](NS(=O)(=O)C(F)F)C3)=NO2)c(-c2c(F)cccc2F)c1 [Example 81, N-[(3R,4S)-1-{(5S)-5-[3-(2,6-difluorophenyl)-5-methylpyridin-2-yl]-4,5-dihydro-1,2-oxazol-3-yl}-4-fluoropyrrolidin-3-yl]-1,1-difluoromethanesulfonamide]",100%
23,"Cc1cnc([C@@H]2CC(N3C[C@H](F)[C@H](NS(=O)(=O)CF)C3)=NO2)c(-c2c(F)cc(F)cc2F)c1 [Example 82, 1-fluoro-N-[(3R,4S)-4-fluoro-1-{(5S)-5-[5-methyl-3-(2,4,6-trifluorophenyl)pyridin-2-yl]-4,5-dihydro-1,2-oxazol-3-yl}pyrrolidin-3-yl]methanesulfonamide]",98%
